Data from patent US20180125995A1, “ANTI-STAPHYLOCOCCUS AUREUS ANTIBODY RIFAMYCIN CONJUGATES AND USES THEREOF” (priority 2014, published 2018).
Converted amounts (≈) assume the structure as drawn.

B1: monoclonal antibody rF1 (recombinantly produced F1), human IgG1 kappa (antibody, V domains shown)
VH: EVQLVESGGGLVQPGGSLRLSCAASGFTLSRFAMSWVRQAPGRGLEWVASINNGNNPYYARSVQYRFTVSRDVSQNTVSLQMNNLRAEDSATYFCAKDHPSSGWPTFDSWGPGTLVTVSS
VL: DIQLTQSPSALPASVGDRVSITCRASENVGDWLAWYRQKPGKAPNLLIYKTSILESGVPSRFSGSGSGTEFTLTISSLQPDDFATYYCQHYMRFPYTFGQGTKVEIKR

Tests used:
[1] = test system: MRSA (NRS384 strain of USA300); assay: MIC determination for extracellular bacteria in liquid culture; format: cell-based; settings: Staphylococcus aureus, read-out: Extracellular MRSA MIC
Experimental: The MIC for extracellular bacteria was determined by preparing serial 2-fold dilutions of the antibiotic in Tryptic Soy Broth. Dilutions of the antibiotic were made in quadruplicate in 96 well culture dishes. MRSA (NRS384 strain of USA300) was taken from an exponentially growing culture and diluted to 1×10^4 CFU/mL. The bacteria was cultured in the presence of antibiotic for 18-24 hours with shaking at 37° C. and bacterial growth was determined by reading the Optical Density (OD) at […]. The MIC was determined to be the dose of antibiotic that inhibited bacterial growth by >90%.
(§1) For extracellular bacteria, MRSA was cultured overnight in Tryptic Soy Broth, and the MIC was determined to be the minimum antibiotic dose that prevented growth. For intracellular bacteria, murine peritoneal macrophages were infected with MRSA and cultured in the presence of gentamycin to kill extracellular bacteria. Test antibiotics were added to the culture medium one day post infection, and the total number of surviving intracellular bacteria was determined 24 hours later. The expected serum concentrations for clinically relevant antibiotics was reported in Antimicrobial Agents, Andre Bryskier. ASM Press, Washington D.C. (2005).

[2] = test system: MRSA sequestered inside mouse peritoneal macrophages; assay: MIC determination for intracellular bacteria sequestered inside murine macrophages; format: cell-based, Staphylococcus aureus; settings: for killing of MRSA sequestered inside macrophages: clinically achievable concentrations of the antibiotics
Experimental: Intracellular MIC was determined on bacteria that were sequestered inside mouse peritoneal macrophages (see below for generation of murine peritoneal macrophages). Macrophages were plated in 24 well culture dishes at a density of 4×10^5 cells/mL and infected with MRSA at a ratio of 10-20 bacteria per macrophage. Macrophage cultures were maintained in growth media supplemented with 50 ug/mL of gentamycin (an antibiotic that is active only on extracellular bacteria) to inhibit the growth of extracellular bacteria and test antibiotics were added to the growth media 1 day after infection. The survival of intracellular bacteria was assessed 24 hours after addition of the antibiotics. Macrophages were lysed with Hanks Buffered Saline Solution supplemented with 0.1% Bovine Serum Albumin and 0.1% Triton-X, and serial dilutions of the lysate were made in Phosphate Buffered Saline solution containing 0.05% Tween-20. The number of surviving intracellular bacteria was determined by plating on Tryptic Soy Agar plates with 5% defibrinated sheep blood.
as §1

[3] = test system: S. aureus (USA300 NRS384 strain) in murine macrophages; assay: In vitro macrophage assay; format: cell-based, Staphylococcus aureus; settings: for reduction of bacterial loads: highest dose tested (100 ug/mL), intracellular bacteria 2 days later; for killing of intracellular MRSA: macrophage assay in vitro
Experimental: S. aureus (USA300 NRS384 strain) was incubated with various doses (100 ug/mL, 10 ug/mL, 1 ug/mL or 0.1 ug/mL) of an anti-S. aureus unconjugated antibody, 103 AAC loaded with 1.9 average antibiotic molecules per antibody (AAR2) or with 102 AAC loaded with 3.9 average antibiotic molecules per antibody (AAR4) for 1 hour to permit binding of the antibody to the bacteria. The resulting opsonized bacteria were fed to murine macrophages and incubated at 37° C. to permit phagocytosis (in vitro macrophage assay). After 2 hours, the infection mix was removed and replaced with normal growth media supplemented with 50 ug/mL of gentamycin to kill any remaining extracellular bacteria. The total number of surviving intracellular bacteria was determined 2 days later by plating serial dilutions of the macrophage lysates on Tryptic Soy Agar plates.

[4] = test system: MRSA (USA300 NRS384 strain); assay: Murine intravenous infection model (SCID IVIG model); format: in vivo, Staphylococcus aureus; settings: for mice having undetectable level of bacteria in hearts: day 4, n=8; for reduction of bacterial load in kidneys: vs naked antibody
Experimental: Murine intravenous infection model. For studies involving competing human IgG (SCID IVIG model), CB17.SCID mice (Charles River Laboratories, Hollister, Calif.) were reconstituted with GammaGard S/D IGIV Immune Globulin (ASD Healthcare, Brooks Ky.) using a dosing regimen optimized to achieve constant serum levels of at least 10 mg/mL of human IgG in serum. IGIV was administered with an initial intravenous dose of 30 mg per mouse followed by a second dose of 15 mg/mouse by intraperitoneal injection after 6 hours, and subsequent daily dosing of 15 mg per mouse by intraperitoneal injection for 3 consecutive days.
Mice (n=8 for each of antibody or AAC) were infected 4 hours after the first dose of IGIV with 1×10^7 CFU of MRSA (USA300 NRS384 strain) diluted in phosphate buffered saline by intravenous injection. Infected mice were treated with 50 mg/kg of rF1 naked antibody, 103 AAC DAR2 or 102 AAC DAR4. Mice were given a single dose of AAC 26h post infection by intravenous injection, sacrificed on day 4 post infection, and kidneys and hearts were harvested in 5 mL of phosphate buffered saline. The tissue samples were homogenized using a GentleMACS Dissociator™ (Miltenyi Biotec, Auburn, Calif.). The total number of bacteria recovered per organ was determined by plating serial dilutions of the tissue homogenate in PBS 0.05% Tween on Tryptic Soy Agar with 5% defibrinated sheep blood.

[5] = molecular target: glycosylated serine-aspartate repeat (SDR) proteins of Staphylococcus aureus, as displayed on whole bacteria, in lysates or in cell wall preparations; assay: flow cytometry on whole USA300 bacteria
[6] = CB17.SCID mice with IGIV, 50 mg/kg single i.v. dose 26h post infection, day 4

Row | Molecule | killing of MRSA sequestered inside macrophages [2] | reduction of bacterial loads [3] | killing of intracellular MRSA [3] | mice having undetectable level of bacteria in hearts ([4]; 50 mg/kg single i.v. dose) | reduction of bacterial load in kidneys [4, 6] | other results
1 | CCCCCCCCCC(=O)N[C@@H](Cc1c[nH]c2ccccc12)C(=O)N[C@H](CC(N)=O)C(=O)N[C@@H](CC(=O)O)C(=O)N[C@@H]1C(=O)NCC(=O)N[C@@H](CCCN)C(=O)N[C@@H](CC(=O)O)C(=O)N[C@H](C)C(=O)N[C@@H](CC(=O)O)C(=O)NCC(=O)N[C@H](CO)C(=O)N[C@@H]([C@H](C)CC(=O)O)C(=O)N[C@@H](CC(=O)c2ccccc2N)C(=O)O[C@@H]1C [Daptomycin] | failed to kill | – | – | – | – | MIC [1]: 4 µg/mL (≈ 2.47 µM); MIC ([2]; Staphylococcus aureus, MRSA, 24 h, read-out: Intracellular MRSA MIC): > 100 µg/mL
2 | CC(=O)NC[C@H]1CN(c2ccc(N3CCOCC3)c(F)c2)C(=O)O1 [Linezolid] | failed to kill | – | – | – | – | –
3 | CO[C@H]1/C=C/O[C@@]2(C)Oc3c(C)c(O)c4c(O)c(c(/C=N/N5CCN(C)CC5)c(O)c4c3C2=O)NC(=O)/C(C)=C\C=C\[C@H](C)[C@H](O)[C@@H](C)[C@@H](O)[C@@H](C)[C@H](OC(C)=O)[C@@H]1C [Rifampicin] | – | – | – | – | – | fold higher dose to eliminate intracellular MRSA compared to MIC of planktonic bacteria ([2]; intracellular vs planktonic): 6,000 fold
4 | thio-rF1-HC-121C, LC-V205C-MC-(CBDK-cit)-PAB-(dimethylpipBOR) [AAC 102] | – | more than 4,000 fold | killed intracellular MRSA | 8 out of 8 | more than 30,000 fold | eradication of infection in hearts ([4]; 50 mg/kg single i.v. dose, day 4): completely eradicated infection in hearts
5 | thio-rF1-LC-V205C-MC-(CBDK-cit)-PAB-(dimethylpipBOR) [AAC 103] | – | 350 fold | killed intracellular MRSA | 6 out of 8 | approximately 30 fold | reduction of bacterial burdens in heart [4, 6]: approximately 70 fold
6 | B1 | – | – | – | – | – | fold of maximum binding (MFI) against anti-ClfA mAb 4675 [5]: 10 fold
